Experimental findings from ChEMBL document CHEMBL1124768 (1990) are described below.

Common to all, as to assay type: functional
The subject of assay [1] is Rattus norvegicus. Put plainly: Inhibition of carrageenan-induced 4 hours after 50 mg/kg i.p. administration in rats. The conditions noted are these: ip, route intraperitoneal.
Assay [2] has as its system Rattus norvegicus. Kind of assay: Inhibitory activity was measured on carrageenan-induced paw edema at a dose of 100 mg/Kg at 4 hours after intraperitoneal administration in rats. Particulars: ip.
Assay [3] relates to Rattus norvegicus. Kind of assay: Inhibitory activity was measured on carrageenan-induced paw edema at a dose of 25 mg/Kg at 4 hours after intraperitoneal administration in rats. The conditions noted are these: ip. (In general: The carrageenan paw model is a standard test of acute inflammation.)

A value given as a limit tells only on which side of the number the result lay.

Usually inhibition in vivo stands for the change of the read-out against control, counted positive when it falls. A lower inhibition in vivo goes with a response near the control. `CCC(/C=N/OCCC(=O)O)CC`: the inhibition in vivo at 50 mg/kg with Rattus norvegicus [1] stood at 0%.

In the case of `O=C(O)CCO/N=C1/CC2CCC1C2` (stereo not drawn), the inhibition in vivo at 50 mg/kg in the assay on Rattus norvegicus [1] amounted to 16%.

For `O=C(O)CCON=C(c1ccccc1)c1ccccc1`, in the assay with Rattus norvegicus [1], 50 mg/kg produced 11% inhibition in vivo. `CC(C)=NOCCC(=O)O` came in with an inhibition in vivo at 100 mg/kg in the assay on Rattus norvegicus [2] of 35%. The molecule further yielded an inhibition in vivo at 50 mg/kg in the assay on Rattus norvegicus [1] of 21%.

The molecule `O=C(O)CCO/N=C\c1ccccc1` returned an inhibition in vivo at 50 mg/kg in the assay with Rattus norvegicus [1] of 0%. For `CC(C)C(=NOCCC(=O)O)C(C)C`, the inhibition in vivo at 50 mg/kg with Rattus norvegicus [1] stood at 12%. `C/C(=N\OCCC(=O)O)c1ccccc1` came in with an inhibition in vivo at 100 mg/kg with Rattus norvegicus [2] of 31%. The molecule also registered an inhibition in vivo at 50 mg/kg in the assay on Rattus norvegicus [1] of 40%. Also, the inhibition in vivo at 25 mg/kg in the assay with Rattus norvegicus [3] turned out to be 23%.

Take `CCCC(CCC)=NOCCC(=O)O`: the inhibition in vivo at 50 mg/kg in the assay with Rattus norvegicus [1] amounted to 0%. For `O=C(O)Cc1ccccc1Nc1c(Cl)cccc1Cl` [DICLOFENAC], in the assay on Rattus norvegicus [1], at 50 mg/kg the inhibition in vivo was 67%. This molecule yielded an inhibition in vivo at 25 mg/kg with Rattus norvegicus [3] of 31%. Consider `O=C(O)CCON=C1C2CC3CC(C2)CC1C3`, for which, in the assay with Rattus norvegicus [1], the inhibition in vivo at 50 mg/kg stood at 19%. The molecule `C/C(=N\OCCC(=O)O)C1CC1` had an inhibition in vivo at 50 mg/kg in the assay on Rattus norvegicus [1] of 16%. As to `O=C(O)CCO/N=C/C1CCCCC1`, the inhibition in vivo at 50 mg/kg in the assay with Rattus norvegicus [1] came to 0%. Take `CC/C(=N\OCCC(=O)O)C(C)C`: the inhibition in vivo at 100 mg/kg in the assay with Rattus norvegicus [2] was less than 27%. Moreover, testing at 50 mg/kg with Rattus norvegicus [1] gave an inhibition in vivo of 35%. Moreover, 25 mg/kg produced 21% inhibition in vivo with Rattus norvegicus [3]. In the assay on Rattus norvegicus [1], `O=C(O)CCO/N=C/c1ccccc1` showed an inhibition in vivo at 50 mg/kg of 66%. Further, at 25 mg/kg the inhibition in vivo in the assay on Rattus norvegicus [3] was 15%.

`CC/C(=N\OCCC(=O)O)c1ccccc1`: 100 mg/kg produced 20% inhibition in vivo with Rattus norvegicus [2]. In addition, in the assay with Rattus norvegicus [1], the inhibition in vivo at 50 mg/kg came to 28%. The inhibition in vivo at 25 mg/kg in the assay with Rattus norvegicus [3] stood at 19%. As for `C/C(=N\OCCC(=O)O)C1CCCCC1`, in the assay with Rattus norvegicus [1], 50 mg/kg produced 0% inhibition in vivo.

As to `O=C(O)CCO/N=C/c1ccco1`, the inhibition in vivo at 50 mg/kg in the assay with Rattus norvegicus [1] came to 15%. In the assay with Rattus norvegicus [1], `O=C(O)CCO/N=C/c1cccs1` had an inhibition in vivo at 50 mg/kg of 0%.

On to `O=C(O)CCON=C1c2ccccc2-c2ccccc21`, for which 50 mg/kg produced 0% inhibition in vivo in the assay with Rattus norvegicus [1].
